From PubChem BioAssay (NCI)
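A five-concentration, 48-hour dose response in 96-well plates underlies each endpoint, interpolated linearly between surrounding concentrations. Definition used: TGI = concentration required for complete inhibition of growth.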

What was measured:
Experiment in all cases: NCI tumour cell line growth inhibition, 48 h
SK-MEL-28 melanoma = tested on: SK-MEL-28 melanoma
OVCAR-8 ovarian = tested on: OVCAR-8 ovarian
T-47D breast = tested on: T-47D breast
LOX IMVI melanoma = tested on: LOX IMVI melanoma
M14 melanoma = tested on: M14 melanoma
BT-549 breast = tested on: BT-549 breast
OVCAR-4 ovarian = tested on: OVCAR-4 ovarian
ACHN renal = tested on: ACHN renal
HCT-116 colon = tested on: HCT-116 colon
HL-60(TB) leukemia = tested on: HL-60(TB) leukemia
A549 NSCLC = tested on: A549 NSCLC
K-562 leukemia = tested on: K-562 leukemia
IGROV1 ovarian = tested on: IGROV1 ovarian
U251 CNS = tested on: U251 CNS
SK-MEL-2 melanoma = tested on: SK-MEL-2 melanoma
SW-620 colon = tested on: SW-620 colon
NCI-H460 lung = tested on: NCI-H460 lung
RXF 393 renal = tested on: RXF 393 renal
786-0 renal = tested on: 786-0 renal
HOP-92 NSCLC = tested on: HOP-92 NSCLC
NCI-H226 lung = tested on: NCI-H226 lung
COLO 205 colon = tested on: COLO 205 colon
SF-268 CNS = tested on: SF-268 CNS
OVCAR-5 ovarian = tested on: OVCAR-5 ovarian
TK-10 renal = tested on: TK-10 renal
UACC-62 melanoma = tested on: UACC-62 melanoma
EKVX NSCLC = tested on: EKVX NSCLC
SK-OV-3 ovarian = tested on: SK-OV-3 ovarian
HCT-15 colon = tested on: HCT-15 colon
KM12 colon = tested on: KM12 colon
SF-295 CNS = tested on: SF-295 CNS
MDA-N = tested on: MDA-N
RPMI-8226 leukemia = tested on: RPMI-8226 leukemia
SNB-75 CNS = tested on: SNB-75 CNS
CAKI-1 renal = tested on: CAKI-1 renal
NCI-H23 lung = tested on: NCI-H23 lung
MOLT-4 leukemia = tested on: MOLT-4 leukemia
MCF7 breast = tested on: MCF7 breast
HT29 colon = tested on: HT29 colon
DU-145 prostate = tested on: DU-145 prostate
MALME-3M melanoma = tested on: MALME-3M melanoma
MDA-MB-231 breast = tested on: MDA-MB-231 breast
NCI/ADR-RES ovarian = tested on: NCI/ADR-RES ovarian
NCI-H522 lung = tested on: NCI-H522 lung
A498 renal = tested on: A498 renal
PC-3 prostate = tested on: PC-3 prostate
SF-539 CNS = tested on: SF-539 CNS
MDA-MB-435 = tested on: MDA-MB-435
OVCAR-3 ovarian = tested on: OVCAR-3 ovarian
HS 578T breast = tested on: HS 578T breast
HOP-62 NSCLC = tested on: HOP-62 NSCLC
HCC-2998 colon = tested on: HCC-2998 colon
SNB-19 CNS = tested on: SNB-19 CNS
CCRF-CEM leukemia = tested on: CCRF-CEM leukemia
UACC-257 melanoma = tested on: UACC-257 melanoma
UO-31 renal = tested on: UO-31 renal
SN12C renal = tested on: SN12C renal

SMILES: COc1ccccc1OC/C(N=Cc1cccnc1)=N/NC(=O)c1ccncc1
- TGI (SK-MEL-28 melanoma): > 100 µM
- TGI (OVCAR-8 ovarian): > 100 µM
- TGI (T-47D breast): > 100 µM
- TGI (LOX IMVI melanoma): > 100 µM
- TGI (M14 melanoma): > 100 µM
- TGI (BT-549 breast): > 100 µM
- TGI (OVCAR-4 ovarian): > 100 µM
- TGI (ACHN renal): > 100 µM
- TGI (HCT-116 colon): > 100 µM
- TGI (HL-60(TB) leukemia): > 100 µM
- TGI (A549 NSCLC): > 100 µM
- TGI (K-562 leukemia): > 100 µM
- TGI (IGROV1 ovarian): > 100 µM
- TGI (U251 CNS): > 100 µM
- TGI (SK-MEL-2 melanoma): > 100 µM
- TGI (SW-620 colon): > 100 µM
- TGI (NCI-H460 lung): > 100 µM
- TGI (RXF 393 renal): > 100 µM
- TGI (786-0 renal): > 100 µM
- TGI (HOP-92 NSCLC): > 100 µM
- TGI (NCI-H226 lung): > 100 µM
- TGI (COLO 205 colon): > 100 µM
- TGI (SF-268 CNS): > 100 µM
- TGI (OVCAR-5 ovarian): > 100 µM
- TGI (TK-10 renal): > 100 µM
- TGI (UACC-62 melanoma): > 100 µM
- TGI (EKVX NSCLC): > 100 µM
- TGI (SK-OV-3 ovarian): > 100 µM
- TGI (HCT-15 colon): > 100 µM
- TGI (KM12 colon): > 100 µM
- TGI (SF-295 CNS): > 100 µM
- TGI (MDA-N): > 100 µM
- TGI (RPMI-8226 leukemia): > 100 µM
- TGI (SNB-75 CNS): > 100 µM
- TGI (CAKI-1 renal): > 100 µM
- TGI (NCI-H23 lung): > 100 µM
- TGI (MOLT-4 leukemia): > 100 µM
- TGI (MCF7 breast): > 100 µM
- TGI (HT29 colon): > 100 µM
- TGI (DU-145 prostate): > 100 µM
- TGI (MALME-3M melanoma): > 100 µM
- TGI (MDA-MB-231 breast): > 100 µM
- TGI (NCI/ADR-RES ovarian): > 100 µM
- TGI (NCI-H522 lung): > 100 µM
- TGI (A498 renal): > 100 µM
- TGI (PC-3 prostate): > 100 µM
- TGI (SF-539 CNS): > 100 µM
- TGI (MDA-MB-435): > 100 µM
- TGI (OVCAR-3 ovarian): > 100 µM
- TGI (HS 578T breast): > 100 µM
- TGI (HOP-62 NSCLC): > 100 µM
- TGI (HCC-2998 colon): > 100 µM
- TGI (SNB-19 CNS): > 100 µM
- TGI (CCRF-CEM leukemia): > 100 µM
- TGI (UACC-257 melanoma): > 100 µM

SMILES: O=[N+]([O-])/C(C(Cl)=C(Cl)Cl)=C(\NCc1ccccc1)Sc1ccccc1
- TGI (SK-MEL-28 melanoma): 36.8 µM
- TGI (OVCAR-8 ovarian): 32.8 µM
- TGI (T-47D breast): 71.7 µM
- TGI (LOX IMVI melanoma): 26.6 µM
- TGI (M14 melanoma): > 100 µM
- TGI (BT-549 breast): 38.7 µM
- TGI (OVCAR-4 ovarian): 75.4 µM
- TGI (UO-31 renal): 38.3 µM
- TGI (ACHN renal): > 100 µM
- TGI (HCT-116 colon): > 100 µM
- TGI (A549 NSCLC): > 100 µM
- TGI (K-562 leukemia): > 100 µM
- TGI (U251 CNS): > 100 µM
- TGI (SK-MEL-2 melanoma): 84.7 µM
- TGI (SW-620 colon): 42.6 µM
- TGI (NCI-H460 lung): > 100 µM
- TGI (786-0 renal): > 100 µM
- TGI (NCI-H226 lung): 98.3 µM
- TGI (COLO 205 colon): 33.2 µM
- TGI (SF-268 CNS): 57.4 µM
- TGI (OVCAR-5 ovarian): > 100 µM
- TGI (UACC-62 melanoma): > 100 µM
- TGI (EKVX NSCLC): > 100 µM
- TGI (SK-OV-3 ovarian): > 100 µM
- TGI (HCT-15 colon): 35 µM
- TGI (KM12 colon): 36.9 µM
- TGI (SF-295 CNS): 41 µM
- TGI (MDA-N): > 100 µM
- TGI (RPMI-8226 leukemia): > 100 µM
- TGI (SNB-75 CNS): 63.3 µM
- TGI (CAKI-1 renal): > 100 µM
- TGI (NCI-H23 lung): 40.1 µM
- TGI (MOLT-4 leukemia): > 100 µM
- TGI (MCF7 breast): > 100 µM
- TGI (HT29 colon): > 100 µM
- TGI (DU-145 prostate): > 100 µM
- TGI (MALME-3M melanoma): 33.3 µM
- TGI (MDA-MB-231 breast): > 100 µM
- TGI (NCI/ADR-RES ovarian): 69.7 µM
- TGI (SN12C renal): > 100 µM
- TGI (A498 renal): 62.2 µM
- TGI (PC-3 prostate): > 100 µM
- TGI (SF-539 CNS): 38.9 µM
- TGI (MDA-MB-435): 41.3 µM
- TGI (OVCAR-3 ovarian): 34.5 µM
- TGI (HS 578T breast): 36 µM
- TGI (HOP-62 NSCLC): 57.1 µM
- TGI (HCC-2998 colon): > 100 µM
- TGI (SNB-19 CNS): > 100 µM
- TGI (CCRF-CEM leukemia): > 100 µM
- TGI (UACC-257 melanoma): > 100 µM
